The target in assay [1] is T1, human factor XIa (Homo sapiens, UniProt P03951). Put plainly: Dose-response inhibition of wild-type factor XIa, S-2366 hydrolysis assay. The conditions noted are these: for HS (Hill slope) / Y0 (minimum value of the residual activity): logistic fit eq 1; for Y0 (minimum value of the residual activity): residual activity Y in %; for improvement in potency over the best sulfated QAO designed earlier: comparison with earlier studies.

For assay [2], the target named is T1, human factor XIa. The experiment in a line: Michaelis-Menten kinetics of S-2366 hydrolysis in the presence of inhibitors. Format: biochemical. The conditions noted are these: for VMAX: S-2366 0-1.6 mM; for mechanism of inhibition: VMAX reduced dose-dependently without significant change in KM.
Another assay concerns factor XIa. The experiment in a line: Competitive inhibition studies using unfractionated heparin as a competitor. Format: biochemical, human. The conditions noted are these: UFH 0 to 16 μM; 50 mM Tris-HCl pH 7.4, 37 °C.
The target in assay [3] is T1, human factor XIa. Format: biochemical. The settings on record: 50 mM Tris-HCl pH 7.4, 37 °C; for reduction in residual fXIa activity (inhibition) in the screen: 300 μM inhibitor; for enhancement of fXIa catalysis in the screen: 300 μM compound.
The subject of assay [4] is fluorescein-EGR factor XIa (fEGR-fXIa). In kind it is binding, human. The conditions noted are these: bolus giving ∼33 μM in fXIa solution quenched with 0.175 M NaI.

T1 sequence (P03951 19-387 limits assumed): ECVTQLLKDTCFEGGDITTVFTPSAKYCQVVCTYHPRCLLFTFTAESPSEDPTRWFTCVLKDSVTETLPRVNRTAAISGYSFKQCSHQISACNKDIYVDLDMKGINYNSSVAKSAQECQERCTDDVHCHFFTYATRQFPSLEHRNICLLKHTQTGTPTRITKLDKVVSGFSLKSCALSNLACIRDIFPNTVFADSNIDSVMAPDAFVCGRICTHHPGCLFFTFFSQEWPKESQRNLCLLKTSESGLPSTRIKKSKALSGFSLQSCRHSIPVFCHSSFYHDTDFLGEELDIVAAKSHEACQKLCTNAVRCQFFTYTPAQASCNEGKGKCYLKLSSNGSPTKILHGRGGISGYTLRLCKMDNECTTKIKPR
T1 sequence (P03951 388-625 limits assumed): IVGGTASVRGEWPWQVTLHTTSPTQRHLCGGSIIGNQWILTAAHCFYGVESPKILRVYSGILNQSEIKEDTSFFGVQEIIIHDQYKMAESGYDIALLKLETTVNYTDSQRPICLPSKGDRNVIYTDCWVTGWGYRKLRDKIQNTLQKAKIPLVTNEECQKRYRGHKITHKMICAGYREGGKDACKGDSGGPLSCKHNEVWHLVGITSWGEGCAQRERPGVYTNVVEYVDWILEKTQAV

With `COC(=O)c1c(C)oc2cc(OC)c(OCc3oc4cc(OC)c(OS(=O)(=O)[O-])cc4c3C(=O)OC)cc12.[Na+]` [compound 15], on human factor XIa [1], the “HS (Hill slope)” value came to 6.9 ± 1.2 and the “Y0 (minimum value of the residual activity)” value amounted to 4 ± 4.

Turning to `CCOC(=O)c1c(C)oc2cc(OC)c(OCc3oc4cc(OCC)c(OS(=O)(=O)[O-])cc4c3C(=O)OCC)cc12.[Na+]` [compound 21], the VMAX on human factor XIa [2] (21 at 5 μM, fXIa 0.365 nM) was found to be 37.4 ± 1.4 mAU/min. Also, the VMAX on human factor XIa [2] (21 at 7.25 μM, fXIa 0.365 nM) was 30.7 ± 0.6 mAU/min. Further, the VMAX on human factor XIa [2] (21 at 10 μM, fXIa 0.365 nM) was determined as 20.3 ± 1.2 mAU/min. The mechanism of inhibition entry on human factor XIa [2] is “noncompetitive inhibition”. Moreover, in the assay on factor XIa, the “change in IC50 in the presence of UFH” value is on record as “no significant change”. Also, on human factor XIa [1], the “improvement in potency over the best sulfated QAO designed earlier” value was found to be 10 fold, the “HS (Hill slope)” value is given as 1.9 ± 0.3 and the “Y0 (minimum value of the residual activity)” value was found to be 0 ± 2.

Take `CCOC(=O)c1c(C)oc2cc(OCc3oc4cc(OC)c(OS(=O)(=O)[O-])cc4c3C(=O)OCC)c(OC)cc12.[Na+]` [compound 22]: the “reduction in residual fXIa activity (inhibition) in the screen” value at human factor XIa [3] is “did not inhibit fXIa”.

As to `CCOC(=O)c1c(C)oc2cc(OC)c(OCc3oc4cc(OC)c(OCc5oc6cc(OC)c(OS(=O)(=O)[O-])cc6c5C(=O)OC)cc4c3C(=O)OCC)cc12.[Na+]` [compound 23], on human factor XIa [1], the “HS (Hill slope)” value stood at 5.2 ± 0.4 and the “Y0 (minimum value of the residual activity)” value is 7 ± 1.

With `CCOC(=O)c1c(C)oc2cc(OC)c(OCc3oc4cc(OC)c(OCc5oc6cc(OCC)c(OS(=O)(=O)[O-])cc6c5C(=O)OCC)cc4c3C(=O)OCC)cc12.[Na+]` [compound 24], the VMAX at human factor XIa [2] (24 at 150 nM, fXIa 0.765 nM) is 57.1 ± 1.8 mAU/min; at human factor XIa [2] (24 at 300 nM, fXIa 0.765 nM), 48.7 ± 1.7 mAU/min; at human factor XIa [2] (24 at 550 nM, fXIa 0.765 nM), 34.9 ± 0.9 mAU/min; at human factor XIa [2] (24 at 900 nM, fXIa 0.765 nM), 9.8 ± 0.5 mAU/min. In addition, the mechanism of inhibition entry on human factor XIa [2] is given as “noncompetitive inhibition”. Besides, the “nature of the interaction with fXIa (recovery of fluorescence after bolus)” value in assay [4] is given as “fully reversible”. Moreover, the “change in IC50 in the presence of UFH” value with factor XIa is given as “no significant change”. For the same molecule, the “improvement in potency over the best sulfated QAO designed earlier” value on human factor XIa [1] is around 50 fold. Moreover, at human factor XIa [1], the “HS (Hill slope)” value was determined as 3.8 ± 0.3. In addition, the “Y0 (minimum value of the residual activity)” value at human factor XIa [1] was 0 ± 1.

With `CCOC(=O)c1c(C)oc2cc(OC)c(OCc3oc4cc(OC)c(OCc5oc6cc(OC(C)C)c(OS(=O)(=O)[O-])cc6c5C(=O)OCC)cc4c3C(=O)OCC)cc12.[Na+]` [compound 25], on human factor XIa [1], the “HS (Hill slope)” value turned out to be 6.6 ± 0.8 and the “Y0 (minimum value of the residual activity)” value amounted to 3 ± 2.

Take `CCOC(=O)c1c(C)oc2cc(OC)c(OCc3oc4cc(OC)c(OCc5oc6cc(OC)c(OS(=O)(=O)[O-])cc6c5C(=O)OCC)cc4c3C(=O)OCC)cc12.[Na+]` [compound 27]: at human factor XIa [1], the “HS (Hill slope)” value is reported as 11.7 ± 1.5 and the “Y0 (minimum value of the residual activity)” value is on record as 2 ± 1.

As to `C=CCOC(=O)c1c(C)oc2cc(OC)c(OCc3oc4cc(OC)c(OCc5oc6cc(OC)c(OS(=O)(=O)[O-])cc6c5C(=O)OCC)cc4c3C(=O)OCC)cc12.[Na+]` [compound 28], at human factor XIa [1], the “HS (Hill slope)” value is given as 6.4 ± 0.9 and the “Y0 (minimum value of the residual activity)” value is on record as 10 ± 2.

For `CCOC(=O)c1c(COc2cc3c(C(=O)OCC)c(COc4cc5c(C(=O)O)c(C)oc5cc4OC)oc3cc2OC)oc2cc(OC)c(O)cc12` [compound 29], the “loss in activity from sulfated analogue 30” value on human factor XIa [1] (IC50 ratio 29 vs 30) was around 13 fold. For the same molecule, on human factor XIa [1], the “HS (Hill slope)” value amounted to 1.9 ± 0.4 and the “Y0 (minimum value of the residual activity)” value is recorded as 0 ± 1.

In the case of `CCOC(=O)c1c(COc2cc3c(C(=O)O)c(C)oc3cc2OC)oc2cc(OC)c(OCc3oc4cc(OC)c(OS(=O)(=O)[O-])cc4c3C(=O)OCC)cc12.[Na+]` [compound 30], the “less potent than 3-carboxyethyl ester analogue 27” value at human factor XIa [1] (IC50 ratio 30 vs 27) was determined as 4.7 fold. Further, on human factor XIa [1], the “HS (Hill slope)” value amounted to 6.9 ± 0.7 and the “Y0 (minimum value of the residual activity)” value stood at 3 ± 2.

`CCOC(=O)c1c(C)oc2cc(OC)c(OCc3oc4cc(OC)c(OCc5oc6cc(OS(=O)(=O)[O-])c(OC)cc6c5C(=O)OCC)cc4c3C(=O)OCC)cc12.[Na+]` [compound 31]: the “reduction in residual fXIa activity (inhibition) in the screen” value on human factor XIa [3] is on record as “did not inhibit fXIa”.

For the molecule `CCOC(=O)c1c(C)oc2cc(OC)c(OCc3oc4cc(OC)c(OCc5oc6cc(OC)c(OCc7oc8cc(OC)c(OS(=O)(=O)[O-])cc8c7C(=O)OCC)cc6c5C(=O)OCC)cc4c3C(=O)OCC)cc12.[Na+]` [compound 32], on human factor XIa [1], the “HS (Hill slope)” value is 1.3 ± 0.2 and the “Y0 (minimum value of the residual activity)” value is reported as 0 ± 1.

Take `O=C(c1cc(OS(=O)(=O)[O-])cc(OS(=O)(=O)[O-])c1)N1CCc2cc(OS(=O)(=O)[O-])c(OS(=O)(=O)[O-])cc2C1.[Na+].[Na+].[Na+].[Na+]` [compound 33]: the “enhancement of fXIa catalysis in the screen” value (“enhancement of fXIa catalysis” for short) at human factor XIa [3] is reported as 20–30%.

As to `CCOC(=O)C1Cc2cc(OS(=O)(=O)[O-])c(OS(=O)(=O)[O-])cc2CN1C(=O)c1ccc(OS(=O)(=O)[O-])c(OS(=O)(=O)[O-])c1.[Na+].[Na+].[Na+].[Na+]` (stereo not shown) [compound 35], the “enhancement of fXIa catalysis” value on human factor XIa [3] is listed as 20–30%.

Regarding `O=C(c1cc(OS(=O)(=O)[O-])c(OS(=O)(=O)[O-])c(OS(=O)(=O)[O-])c1)N1CCc2cc(OS(=O)(=O)[O-])c(OS(=O)(=O)[O-])cc2C1.[Na+].[Na+].[Na+].[Na+].[Na+]` [compound 36], the “enhancement of fXIa catalysis” value at human factor XIa [3] is 20–30%.

For `O=C([O-])C1Cc2cc(OS(=O)(=O)[O-])c(OS(=O)(=O)[O-])cc2CN1C(=O)c1cc(OS(=O)(=O)[O-])c(OS(=O)(=O)[O-])c(OS(=O)(=O)[O-])c1.[Na+].[Na+].[Na+].[Na+].[Na+].[Na+]` (stereo not shown) [compound 37], the “enhancement of fXIa catalysis” value at human factor XIa [3] was 20–30%.

Regarding `N#Cc1c(SCC(=O)c2cccc(OS(=O)(=O)[O-])c2OS(=O)(=O)[O-])nc([N+](=O)[O-])c(C#N)c1-c1ccc(Oc2ccccc2)cc1.[Na+].[Na+]` [compound 61], on human factor XIa [1], the “HS (Hill slope)” value came out at 6.2 ± 0.5 and the “Y0 (minimum value of the residual activity)” value stood at 0 ± 1.

As for `O=C(Nc1ccc(OS(=O)(=O)[O-])cc1)c1cccc(N2C(=O)c3ccc(C(=O)Nc4ccc(OS(=O)(=O)[O-])cc4)cc3C2=O)c1.[Na+].[Na+]` [compound 63], at human factor XIa [1], the “HS (Hill slope)” value was 6.0 ± 0.9 and the “Y0 (minimum value of the residual activity)” value is recorded as 0 ± 1.

(Values after paper PMC4317055 (Journal of Medicinal Chemistry, 2014).)
